In patent publication US11312705B2, “Heteroaryl[4,3-C]pyrimidine-5-amine derivative, preparation method therefor, and medical uses thereof” (Jiangsu Hengrui Medicine Co., Ltd., priority 2017, dated 2022):

What follows are compounds tested against adenosine A2a receptor (A2aR) (Homo sapiens (Human), UniProt P29274) (assay: Inhibition of adenosine A2a receptor cAMP signaling pathway (HTRF cAMP, CHO-K1/A2aR cells)). Details: Table 1, ethyl carbazole 20 nM.
Assay type: cell-based
Description: Test Example 1. Determination of the inhibition activity of the compounds of the present invention on the adenosine A2a receptor (A2aR) cAMP signaling pathway, the adenosine A2b receptor (A2bR) cAMP signaling pathway, the adenosine A1 receptor (A1R) cAMP signaling pathway and the adenosine A3 receptor (A3R) cAMP signaling pathway.
The inhibition activity of the compounds of the present invention on the adenosine A2a receptor cAMP signaling pathway, the adenosine A2b receptor cAMP signaling pathway, the adenosine A1 receptor cAMP signaling pathway and the adenosine A3 receptor cAMP signaling pathway was determined by the following method. The experimental method is briefly described as follows:
2.1 Adenosine A2a Receptor
CHO-K1/A2aR cells were cultured in DMEM/F12 medium containing 10% fetal bovine serum and 800 μg/ml bleomycin. The cells were digested with the cell separation buffer during the experiment. The cells were resuspended in the balanced salt buffer containing 20 mM HEPES and 0.1% bovine serum albumin and counted, and the cell density was adjusted to 10^6 cells/ml. In the 384-well plate, each well was added with 5 μl of cell suspension, and 2.5 μl of test compound (4× concentration) formulated with the balanced salt buffer containing 20 mM HEPES, 0.1% bovine serum albumin, 54 μM rolipram and 2.7 U/ml adenosine deaminase, and the plate was incubated at room temperature for 30 minutes. Each well was then added with 2.5 μl of […] (4× concentration) formulated with the balanced salt buffer containing 20 mM HEPES, 0.1% bovine serum albumin, 54 μM rolipram and 2.7 U/ml adenosine deaminase, and the plate was incubated at room temperature for 30 minutes. The final concentrations of the compounds were: 10000, 2000, 400, 80, 16, 3.2, 0.64, 0.128, 0.0256, 0.00512, and 0.001024 nM. The final concentration of […] was 20 nM. Intracellular cAMP concentration was detected with the cAMP dynamic 2 kit. cAMP-d2 and Anti-cAMP-Eu-Cryptate were diluted respectively with the cAMP lysis buffer at a ratio of 1:4. Each well was added with 5 μl of diluted cAMP-d2, followed by addition of 5 μl of diluted Anti-cAMP-Eu-Cryptate, and the plate was incubated at room temperature in the dark for 1 hour. The HTRF signal values were read by the PHERAstar multi-function microplate reader.

Sequence of adenosine A2a receptor (A2aR) (P29274 whole entry): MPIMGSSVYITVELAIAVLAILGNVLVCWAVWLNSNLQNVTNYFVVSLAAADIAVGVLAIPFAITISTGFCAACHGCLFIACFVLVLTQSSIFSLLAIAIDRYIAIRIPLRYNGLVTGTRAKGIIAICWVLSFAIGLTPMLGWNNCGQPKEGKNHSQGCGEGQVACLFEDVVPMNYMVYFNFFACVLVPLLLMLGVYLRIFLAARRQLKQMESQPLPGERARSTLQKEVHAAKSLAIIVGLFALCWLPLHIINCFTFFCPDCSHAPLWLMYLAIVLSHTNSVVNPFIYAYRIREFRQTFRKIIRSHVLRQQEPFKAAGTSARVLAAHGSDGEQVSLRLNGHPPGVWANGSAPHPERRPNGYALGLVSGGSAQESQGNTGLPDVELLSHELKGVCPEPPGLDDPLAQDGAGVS

SMILES	IC50 [nM]
Nc1nc(-c2ccccc2)c(-c2cc(F)c3[nH]ncc3c2)c2nncn12 [Example 6, 8-(7-Fluoro-1H-indazol-5-yl)-7-phenyl-[1,2,4]triazolo[4,3-c]pyrimidin-5-amine]	0.14
Nc1nc(-c2ccccc2)c(-c2cc(C(F)(F)F)c3[nH]ncc3c2)c2nncn12 [Example 9, 7-Phenyl-8-(7-(trifluoromethyl)-1H-indazol-5-yl)-[1,2,4]triazolo[4,3-c]pyrimidin-5-amine]	0.25
Cc1cc(-c2c(-c3ccccc3)nc(N)n3cnnc23)ccn1 [Example 12, 8-(2-Methylpyridin-4-yl)-7-phenyl-[1,2,4]triazolo[4,3-c]pyrimidin-5-amine]	0.63
Cc1cc(-c2c(-c3ccc(Cl)cc3)nc(N)n3cnnc23)cc(C(F)(F)F)n1 [Example 14, 7-(4-Chlorophenyl)-8-(2-methyl-6-(trifluoromethyl)pyridin-4-yl)-[1,2,4]triazolo[4,3-c]pyrimidin-5-amine]	1.56
Cc1cc(-c2c(-c3ccccc3)nc(N)n3ccnc23)cc(C(F)(F)F)n1 [Example 17, 8-(2-Methyl-6-(trifluoromethyl)pyridin-4-yl)-7-phenylimidazo[1,2-c]pyrimidin-5-amine]	0.75
Cc1cc(-c2c(-c3ccccc3)nc(N)n3cc(C)nc23)cc(C)n1 [Example 21, 8-(2,6-Dimethylpyridin-4-yl)-2-methyl-7-phenylimidazo[1,2-c]pyrimidin-5-amine]	2.46
Nc1nc(-c2ccccc2)c(-c2cc(Cl)nc(C(F)(F)F)c2)c2nncn12 [Example 23, 8-(2-Chloro-6-(trifluoromethyl)pyridin-4-yl)-7-phenyl-[1,2,4]triazolo[4,3-c]pyrimidin-5-amine]	0.23
Cc1cc(-c2c(-c3ccccc3)nc(N)n3ccnc23)cc(Cl)n1 [Example 24, 8-(2-Chloro-6-methylpyridin-4-yl)-7-phenylimidazo[1,2-c]pyrimidin-5-amine]	0.27
COc1cc(-c2c(-c3ccccc3)nc(N)n3cnnc23)cc(C)n1 [Example 25, 8-(2-Methoxy-6-methylpyridin-4-yl)-7-phenyl-[1,2,4]triazolo[4,3-c]pyrimidin-5-amine]	0.32

Now from value to compound:

IC50 [nM]	SMILES
0.42	CCc1cc(-c2c(-c3ccccc3)nc(N)n3cnnc23)cc(C)n1 [Example 26, 8-(2-Ethyl-6-methylpyridin-4-yl)-7-phenyl-[1,2,4]triazolo[4,3-c]pyrimidin-5-amine]
0.93	Cc1cc(-c2c(-c3ccccc3)nc(N)n3ccnc23)cc(C)n1 [Example 31, 8-(2,6-Dimethylpyridin-4-yl)-7-phenylimidazo[1,2-c]pyrimidin-5-amine]
1	Cc1cc(-c2c(-c3ccc(F)cc3)nc(N)n3ccnc23)cc(C)n1 [Example 32, 8-(2,6-Dimethylpyridin-4-yl)-7-(4-fluorophenyl)imidazo[1,2-c]pyrimidin-5-amine]
0.18	Cc1ccc(-c2nc(N)n3cnnc3c2-c2cc(C)nc(Cl)c2)cc1 [Example 35, 8-(2-Chloro-6-methylpyridin-4-yl)-7-(p-tolyl)-[1,2,4]triazolo[4,3-c]pyrimidin-5-amine]
3.47	Cc1cc(-c2c(-c3ccc(Cl)cc3)nc(N)n3cnnc23)cc(Cl)n1 [Example 36, 8-(2-Chloro-6-methylpyridin-4-yl)-7-(4-chlorophenyl)-[1,2,4]triazolo[4,3-c]pyrimidin-5-amine]
2.11	Nc1nc(-c2ccccc2)c(-c2ccncc2)c2nncn12 [Example 37, 7-Phenyl-8-(pyridin-4-yl)-[1,2,4]triazolo[4,3-c]pyrimidin-5-amine]
2.18	Nc1nc(-c2ccccc2)c(-c2ccnc(Cl)c2)c2nncn12 [Example 38, 8-(2-Chloropyridin-4-yl)-7-phenyl-[1,2,4]triazolo[4,3-c]pyrimidin-5-amine]
1.75	Cc1cc(-c2c(-c3ccc(F)cc3F)nc(N)n3cnnc23)cc(C)n1 [Example 40, 7-(2,4-Difluorophenyl)-8-(2,6-dimethylpyridin-4-yl)-[1,2,4]triazolo[4,3-c]pyrimidin-5-amine]
